The NIST ThermoML archive (doi:10.1016/j.jct.2015.11.027)

Conditions: Liquid, Vibrating wire viscometry

Cc1ccccc1C [1,2-dimethylbenzene]
Conditions | viscosity [mPa·s]
273.48 K, 100 kPa | 1.102
273.48 K, 1000 kPa | 1.113
273.48 K, 5000 kPa | 1.154
273.48 K, 10000 kPa | 1.209
273.48 K, 15000 kPa | 1.264
273.48 K, 20000 kPa | 1.319
273.48 K, 25000 kPa | 1.378
273.48 K, 30000 kPa | 1.436
283.21 K, 10000 kPa | 1.031
283.21 K, 15000 kPa | 1.075
283.21 K, 20000 kPa | 1.121
283.21 K, 25000 kPa | 1.169
283.21 K, 30000 kPa | 1.216
283.22 K, 100 kPa | 0.9464
283.22 K, 1000 kPa | 0.9529
283.22 K, 5000 kPa | 0.9859
293.04 K, 100 kPa | 0.8196
293.04 K, 1000 kPa | 0.8252
293.04 K, 5000 kPa | 0.8535
293.04 K, 10000 kPa | 0.8901
293.05 K, 15000 kPa | 0.9269
293.05 K, 20000 kPa | 0.9685
293.05 K, 25000 kPa | 1.006
293.06 K, 30000 kPa | 1.048
302.87 K, 100 kPa | 0.7178
302.87 K, 1000 kPa | 0.7228
302.87 K, 20000 kPa | 0.8457
302.87 K, 25000 kPa | 0.879
302.87 K, 30000 kPa | 0.9126
302.88 K, 5000 kPa | 0.7489
302.88 K, 10000 kPa | 0.7794
302.88 K, 15000 kPa | 0.8128
312.66 K, 100 kPa | 0.6371
312.66 K, 10000 kPa | 0.6901
312.66 K, 20000 kPa | 0.7486
312.66 K, 25000 kPa | 0.7781
312.66 K, 30000 kPa | 0.8077
312.67 K, 1000 kPa | 0.6414
312.67 K, 5000 kPa | 0.6635
312.67 K, 15000 kPa | 0.7185
321.85 K, 100 kPa | 0.5744
321.85 K, 1000 kPa | 0.5794
321.85 K, 10000 kPa | 0.6241
321.85 K, 15000 kPa | 0.6489
321.85 K, 30000 kPa | 0.7248
321.86 K, 5000 kPa | 0.5991
321.86 K, 20000 kPa | 0.6748
321.86 K, 25000 kPa | 0.6987
332.47 K, 100 kPa | 0.515
332.47 K, 1000 kPa | 0.5176
332.48 K, 5000 kPa | 0.5347
332.48 K, 10000 kPa | 0.5575
332.48 K, 15000 kPa | 0.5798
332.48 K, 20000 kPa | 0.6029
332.48 K, 25000 kPa | 0.6273
332.48 K, 30000 kPa | 0.6504
343.06 K, 100 kPa | 0.4586
343.07 K, 1000 kPa | 0.4624
343.07 K, 5000 kPa | 0.4782
343.07 K, 10000 kPa | 0.499
343.08 K, 15000 kPa | 0.5195
343.08 K, 25000 kPa | 0.5603
343.08 K, 30000 kPa | 0.5817
343.09 K, 20000 kPa | 0.5401
353.01 K, 30000 kPa | 0.5312
353.02 K, 10000 kPa | 0.4549
353.02 K, 15000 kPa | 0.4725
353.02 K, 20000 kPa | 0.4922
353.02 K, 25000 kPa | 0.5113
353.03 K, 5000 kPa | 0.4342
353.04 K, 100 kPa | 0.4177
353.04 K, 1000 kPa | 0.4196
362.85 K, 100 kPa | 0.3838
362.85 K, 1000 kPa | 0.3862
362.85 K, 5000 kPa | 0.4001
362.85 K, 10000 kPa | 0.4169
362.86 K, 15000 kPa | 0.434
362.86 K, 20000 kPa | 0.4506
362.87 K, 25000 kPa | 0.469
362.87 K, 30000 kPa | 0.4842
372.83 K, 100 kPa | 0.3528
372.84 K, 1000 kPa | 0.3556
372.84 K, 5000 kPa | 0.3683
372.85 K, 10000 kPa | 0.3831
372.85 K, 25000 kPa | 0.4324
372.86 K, 15000 kPa | 0.4015
372.86 K, 20000 kPa | 0.4156
372.86 K, 30000 kPa | 0.4477
